Assays:
[1] = tested on: C4-2 PSMA-positive xenografts; experiment: Biodistribution of radiolabelled ligands (^224Ra/^212Pb solutions, ^177Lu) in nude mice with C4-2 xenografts
Protocol: Each group usually consisted of three mice. […] Approximately 16 kBq of ^224Ra/^212Pb was injected in each animal, i.e., approximately 0.2 nmol of ligand per mouse. Animals were given anaesthesia and sacrificed by cervical dislocation followed by dissection and harvesting of tissue-, blood- and urine samples. The samples were weighed and counted on a gamma counter.
Three mice in each group. […] The molar concentration was the same for both products, i.e., 12.5 nmol per MBq. Approximately 16 kBq of ^224Ra/^212Pb was injected in each animal, i.e., approximately 0.2 nmol of ligand per mouse. Animals were given anaesthesia and sacrificed by cervical dislocation followed by dissection and harvesting of tissue-, blood- and urine samples. The samples were weighed and counted on a gamma counter.
Methods: Tumor and kidney uptake of ^212Pb-labeled p-SCN-Bn-TCMC-PSMA ligand 1 and ^177Lu-labeled PSMA-617 was compared at 1 hours and 4 hours after administration of the products by intravenous injection into nude mice with C4-2 xenografts as described in Example 9.

[2] = tested on: C4-2 PSMA positive human prostate cells xenografts; experiment: Comparative therapy experiment in nude mice with C4-2 xenografts; type: in vivo; details: 52 MBq ^177Lu-PSMA-617 or 320 kBq ^212Pb-ligand 1
Protocol: Male nude mice were inoculated in the flanks with C4-2 PSMA positive human prostate cells and 2 weeks later when tumors were 5-7 mm in diameters. Groups of 8 animals each received saline, 52 MBq of ^177Lu-PSMA-617 or 320 kBq of ^212Pb-p-SCN-Bn-TCMC-PSMA ligand 1. Animals were sacrificed when tumor size reached 20 mm due to animal welfare requirements. […] For ^212Pb the effective half-life was assumed to be 10.6 h, 10% of injected dose per gram decays in tumor and 100% of radiation in a tumor is absorbed in the tumor, 100% retention of ^212Pb and daughters in the tumors and 8 MeV radiation energy per decay. The tumor dosimetry for the injected activities gave on average 35.9 Gy to tumors for ^177Lu-PSMA-617 and 2.06 Gy to tumors for ^212Pb-p-SCN-Bn-TCMC-PSMA ligand 1 groups respectively.

[3] = tested on: PC3 PIP model; details: mouse xenografts, model used by other researchers; cited from earlier work
[4] = Stability testing of ^212Pb-labeled ligands in vitro (TLC radiochemical purity in PBS and FBS); type: physicochemical; details: 37° C.
Protocol: Thin layer chromatography (TLC) was performed using chromatography strips (model #150-772, Biodex Medical Systems Inc, Shirley, N.Y., USA). A formulation buffer (FB) consisting of 7.5% human serum albumin and 5 mM EDTA in DPBS and adjusted to approximately pH 7 with NaOH was mixed with the antibody conjugates in ratio 2:1 for at least 5 minutes before application to the strips to determine free radionuclide. A small beaker with about 0.5 ml of 0.9% NaCl was used to place strips with a sample spot in. To the strip was typically added 1-4 μl of sample at approximately 10% above the bottom of the strip. After the solvent front had moved to about 20% from the top of the strip, the strip was cut in half and each half was placed in a 5 ml test tube for counting. In this system radiolabeled ligand stays at the bottom half while radionuclide complexed with EDTA migrates to the upper half. It was verified that free cations of both ^212Pb and ^177Lu would complex with EDTA and moved to the top.
TLC analyses were performed at 1 h, 4 h, 24 h and 48 h of incubation. […]

[5] = tested on: C4-2 cells; experiment: Prostate cancer cell binding of ^212Pb-labeled ligands; set-up: species or system human; details: labeled with ^212Pb
Protocol: The cell binding fractions measured by adding about 1 ng of radioligand to 0.2 ml of C4-2 cells (5×10^7 cells per ml) in a 5 ml test tube and incubate for 1 h before measuring applied activity, wash cells 3 times with 0.5 ml 0.5% bovine serum albumin in DPBS and thereafter recount the washed cell pellet. […] Nonspecific binding was measured by blocking the cells with excess 10 μg/ml of unlabelled ligand before adding radioligand.

O=C([O-])CN1CCN(CC(=O)[O-])CCN(CC(=O)NCC2CCC(C(=O)N[C@@H](Cc3ccc4ccccc4c3)C(=O)NCCCC[C@H](NC(=O)N[C@@H](CCC(=O)O)C(=O)O)C(=O)O)CC2)CCN(CC(=O)[O-])CC1.[177Lu+3] (some centres unmarked) [^177Lu-PSMA-617, reference compound]
Average tumor-to-kidney ratio ([1]; 1-hour point after administration): 0.17
Tumor-to-kidney ratio ([1]; 4-hour timepoint): 0.8
Kidney uptake (average) ([1]; 4 hours after i.v. injection): 17.4 % ID/g
Tumor uptake (average) ([1]; 4 hours after i.v. injection): 13.6 % ID/g
Typical PSMA-ligand uptake of the xenograft model used ([1]; mouse xenografts, tumor model with intermediary level of uptake): 10-15 % ID/g
Survival at day 30 after treatment ([2]; groups of 8, saline group 0%): 12.5%
Median survival ([2]; saline group 15 days): 20 days
Typical uptake in PC3 PIP model [3]: 30-40 % ID/g

O=C(O)CCC(NC(=O)NC(CCCCNC(=O)C(Cc1ccc2ccccc2c1)NC(=O)C1CCC(CNC(=O)CN2CCN(CC(=O)O)CCN(CC(=O)O)CCN(CC(=O)O)CC2)CC1)C(=O)O)C(=O)O.[212Pb+2] (centres unmarked) [^212Pb-PSMA-617, reference compound]
Radiochemical purity ([4]; FBS, 1 h since start of incubation, in ^224Ra/^212Pb solution): 92.13%
Radiochemical purity ([4]; FBS, 4 h): 94.37%
Radiochemical purity ([4]; FBS, 24 h): 94.54%
Radiochemical purity ([4]; FBS, 48 h): 95.65%
Radiochemical purity ([4]; PBS, 1 h since start of incubation, in ^224Ra/^212Pb solution): 91.62%
Radiochemical purity ([4]; PBS, 4 h): 94.33%
Radiochemical purity ([4]; PBS, 24 h): 93.26%
Radiochemical purity ([4]; PBS, 48 h): 93.17%

NC(=O)CN1CCN(CC(N)=O)CCN(CC(N)=O)C(Cc2ccc(NC(=S)NC[C@H]3CC[C@H](C(=O)N[C@@H](Cc4ccc5ccccc5c4)C(=O)NCCCC[C@H](NC(=O)N[C@@H](CCC(=O)O)C(=O)O)C(=O)O)CC3)cc2)CN(CC(N)=O)CC1 (stereo partly drawn) [p-SCN-Bn-TCMC-PSMA ligand 1, (((1S)-1-carboxy-5-((2S)-3-(naphthalen-2-yl)-2-((1r,4S)-4-((3-(4-((1,4,7,10-tetrakis(2-amino-2-oxoethyl)-1,4,7,10-tetraazacyclododecan-2-yl)methyl)phenyl)thioureido)methyl)cyclohexane-1-carboxamido)propanamido)pentyl)carbamoyl)-L-glutamic acid; trifloroacetic acid (1:4)]
Difference in cell-binding versus radiolabelled PSMA-617 [5]: No significant difference

Source: patent US10377778B2, “Lead and thorium compounds” (Sciencons AS, priority 2017, dated 2019)
